Assay results from the supplement of paper PMC10307832.

Key:
Assay in all cases: relative viability (nuclei count vs DMSO), 5 days (fraction); higher = more cells survive
[1] = compound: Cc1cc(Nc2cc(N3CCN(C)CC3)nc(Sc3ccc(NC(=O)C4CC4)cc3)n2)n[nH]1 [Tozasertib] + CC(C)C[C@H](NC(=O)[C@H](Cc1ccccc1)NC(=O)c1cnccn1)B(O)O [Bortezomib] (partner 0.002 µM)
Summary of the method: (§1)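 Lung cancer cell lines were pin-tool dosed in 1536-well plates on the day after seeding, with either a lone drug or a fixed anchor-drug dose plus five library-drug doses (not always all listed) in √10 steps. Nuclei were counted on 4× images after 5 days. Relative viability is the ratio of treated-well to vehicle-well nuclei counts, with each value a median of duplicate plates.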

[2] = compound: Cc1cc(Nc2cc(N3CCN(C)CC3)nc(Sc3ccc(NC(=O)C4CC4)cc3)n2)n[nH]1 [Tozasertib] + CC(=O)c1c(C)c2cnc(Nc3ccc(N4CCNCC4)cn3)nc2n(C2CCCC2)c1=O [Palbociclib] (partner 0.5 µM)
Summary of the method: as §1

[3] = compound: Cc1cc(Nc2cc(N3CCN(C)CC3)nc(Sc3ccc(NC(=O)C4CC4)cc3)n2)n[nH]1 [Tozasertib] + CS(=O)(=O)N1CCN(Cc2cc3nc(-c4cccc5[nH]ncc45)nc(N4CCOCC4)c3s2)CC1 [Pictilisib] (partner 1 µM)
Summary of the method: as §1

[4] = compound: Cc1cc(Nc2cc(N3CCN(C)CC3)nc(Sc3ccc(NC(=O)C4CC4)cc3)n2)n[nH]1 [Tozasertib] + COc1cc2c(Oc3ccc(NC(=O)C4(C(=O)Nc5ccc(F)cc5)CC4)cc3F)ccnc2cc1OCCCN1CCOCC1 [Foretinib] (partner 0.25 µM)
Summary of the method: as §1

[5] = compound: Cc1cc(Nc2cc(N3CCN(C)CC3)nc(Sc3ccc(NC(=O)C4CC4)cc3)n2)n[nH]1 [Tozasertib] + N=C(N)NC(=N)NCCc1ccccc1 [Phenformin] (partner 250 µM)
Summary of the method: as §1

Cell Line | relative viability ([1]; first compound 0.004 µM) | relative viability ([1]; first compound 0.01265 µM) | relative viability ([1]; first compound 0.04 µM) | relative viability ([1]; first compound 0.1265 µM) | relative viability ([2]; first compound 0.004 µM) | relative viability ([2]; first compound 0.01265 µM) | relative viability ([2]; first compound 0.04 µM) | relative viability ([2]; first compound 0.1265 µM) | relative viability ([3]; first compound 0.01265 µM) | relative viability ([3]; first compound 0.04 µM) | relative viability ([3]; first compound 0.1265 µM) | relative viability ([4]; first compound 0.004 µM) | relative viability ([4]; first compound 0.01265 µM) | relative viability ([4]; first compound 0.04 µM) | relative viability ([4]; first compound 0.1265 µM) | relative viability ([5]; first compound 0.004 µM) | relative viability ([5]; first compound 0.01265 µM) | relative viability ([5]; first compound 0.04 µM) | relative viability ([5]; first compound 0.1265 µM) | relative viability ([3]; first compound 0.004 µM)
H3255 | 0.789 | 0.7 | 0.823 | 0.549 | 0.33 | 0.292 | 0.315 | 0.324 | 0.463 | 0.533 | 0.413 | 1.43 | 0.698 | 0.868 | 0.706 | 0.291 | 0.396 | 0.379 | 0.353 | 
LXF-289 | 1 | 0.917 | 0.972 | 0.777 | 0.63 | 0.6 | 0.561 | 0.583 | 0.828 | 0.778 | 0.789 | 1.06 | 0.963 | 0.912 | 0.739 | 0.589 | 0.511 | 0.507 | 0.383 | 0.835
A-427 | 0.983 | 0.942 | 1.02 | 0.812 | 0.55 | 0.487 | 0.517 | 0.423 | 0.585 | 0.814 | 0.168 | 1.03 | 0.935 | 1 | 0.594 | 0.332 | 0.31 | 0.328 | 0.169 | 0.676
LCLC-97TM1 | 0.933 | 0.271 | 0.624 | 0.106 | 0.232 | 0.223 | 0.222 | 0.21 | 0.181 | 0.222 | 0.11 | 1.03 | 0.895 | 0.95 | 0.695 | 0.438 | 0.437 | 0.459 | 0.407 | 
HOP-62 | 0.735 | 0.713 | 0.404 | 0.67 | 0.53 | 0.483 | 0.556 | 0.439 | 0.605 | 0.926 | 0.565 | 0.953 | 1.07 | 1.06 | 0.915 | 0.732 | 0.578 | 0.616 | 0.617 | 0.741
HARA | 1.18 | 1 | 1.01 | 0.664 | 0.333 | 0.248 | 0.262 | 0.207 | 0.44 | 0.373 | 0.243 |  | 0.824 | 1.03 | 0.145 | 0.365 | 0.44 | 0.493 | 0.444 | 0.421
NCI-H1993 | 1.06 | 1.05 | 1.33 | 0.805 | 0.622 | 0.63 | 0.681 | 0.743 | 0.759 |  | 0.632 | 0.944 | 0.732 | 0.848 | 0.726 | 0.527 | 0.482 | 0.481 | 0.486 | 
NCI-H460 | 1.13 | 0.949 | 1.46 | 0.844 | 0.172 | 0.18 | 0.196 | 0.115 | 0.346 | 0.389 | 0.319 | 1.03 | 0.981 | 1.01 | 0.504 | 0.529 | 0.463 | 0.578 | 0.159 | 0.337
